Experimental data as given in article PMC5404560, “Towards Selective Mycobacterial ClpP1P2 Inhibitors with Reduced Activity against the Human Proteasome” (Antimicrobial Agents and Chemotherapy, 2017).
Converted amounts (≈) assume the structure as drawn. Read-outs that look alike come from different tables or passages of the source. Marks after values point to notes of the source that are not given here.

Legend:
M. tuberculosis H37Rv = test: microbe, parasite or virus in culture; type: cell-based
M. tuberculosis = test: Bactericidal activity (MBC99.9); type: cell-based; conditions: Mycobacterium tuberculosis; concentration required to kill 99.9% of the bacterial population
Mycobacterium bovis BCG = test: microbe, parasite or virus in culture; type: cell-based; conditions: Mycobacterium tuberculosis variant bovis BCG, read-out: MIC50 for Mycobacterium bovis BCG
[1] = MTS cytotoxicity assay, Vero; type: cell-based; conditions: African green monkey; MTS assay; read-out: GI50, Vero cells
Method: (§1) The MTS (Promega) reduction assay was used according to manufacturer's guidelines to assess Vero (ATCC […]) and HepG2 (ATCC HB-8065) cell viability. […] Carbonyl cyanide m-chlorophenylhydrazone (CCCP) was used as a cytotoxic positive control. Cytotoxicity was determined twice in independent experiments.

Vero cells = test: MTS cytotoxicity assay, Vero; type: cell-based; conditions: fold higher
Method: as §1

[2] = MTS cytotoxicity assay, HepG2; type: cell-based, human; conditions: human; MTS assay; read-out: GI50, HepG2 cells
Method: as §1

HepG2 cells = test: MTS cytotoxicity assay, HepG2; type: cell-based, human; conditions: fold higher
Method: as §1

Log D (octanol/PBS) = type: physicochemical; conditions: pH 7.4, read-out: Log D (measured at pH 7.4)
Method: (§2) A parallel artificial-membrane permeability assay (PAMPA) and mouse liver microsome (MLM), human liver microsome (HLM), aqueous solubility, Log D, protein binding, and cytochrome P450 2D6 and 3A4 assays were carried out at Piramal Pharma Solutions.

[3] = Thermodynamic aqueous solubility; type: physicochemical; conditions: thermodynamic from solid
Method: as §2

[4] = Parallel artificial-membrane permeability assay (PAMPA); type: in vitro ADME; conditions: read-out: PAMPA Pe
Method: as §2

[5] = Plasma protein binding, mouse; type: in vitro ADME; conditions: bound, read-out: Plasma protein binding in mice (%) (converted)
Method: as §2

[6] = Plasma protein binding, human; type: in vitro ADME; conditions: bound, read-out: Plasma protein binding in humans (%) (converted)
Method: as §2

[7] = Human liver microsome stability; type: in vitro ADME; conditions: liver microsomes, read-out: HLM t1/2
Method: as §2

[8] = Mouse liver microsome stability; type: in vitro ADME; conditions: liver microsomes, read-out: MLM t1/2
Method: as §2

CYP450 3A4 = target: T1, CYP450 3A4 (Homo sapiens, UniProt P08684); test: Recombinant cytochrome P450 enzyme assay, 3A4; type: in vitro ADME; conditions: highest concentration tested 10 μM
T1 construct: Piramal Pharma Solutions (contract laboratory)
T1 sequence (P08684 whole entry): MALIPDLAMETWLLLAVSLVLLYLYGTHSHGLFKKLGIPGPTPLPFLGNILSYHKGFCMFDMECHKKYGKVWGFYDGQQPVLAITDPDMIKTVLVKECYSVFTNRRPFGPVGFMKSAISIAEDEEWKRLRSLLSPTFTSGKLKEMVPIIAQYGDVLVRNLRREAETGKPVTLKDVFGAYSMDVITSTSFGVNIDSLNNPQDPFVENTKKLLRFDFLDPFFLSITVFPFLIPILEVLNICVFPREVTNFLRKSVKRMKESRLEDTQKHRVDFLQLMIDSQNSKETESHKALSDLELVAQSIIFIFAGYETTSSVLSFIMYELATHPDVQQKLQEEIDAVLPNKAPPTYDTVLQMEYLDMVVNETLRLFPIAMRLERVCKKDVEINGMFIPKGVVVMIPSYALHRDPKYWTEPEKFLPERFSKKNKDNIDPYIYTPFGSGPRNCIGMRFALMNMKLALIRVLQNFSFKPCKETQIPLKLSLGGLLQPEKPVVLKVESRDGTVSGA
Method: as §2

CYP450 2D6 = target: T2, CYP450 2D6 (Homo sapiens, UniProt P10635); test: Recombinant cytochrome P450 enzyme assay, 2D6; type: in vitro ADME; conditions: highest concentration tested 10 μM
T2 construct: Piramal Pharma Solutions (contract laboratory)
T2 sequence (P10635 whole entry): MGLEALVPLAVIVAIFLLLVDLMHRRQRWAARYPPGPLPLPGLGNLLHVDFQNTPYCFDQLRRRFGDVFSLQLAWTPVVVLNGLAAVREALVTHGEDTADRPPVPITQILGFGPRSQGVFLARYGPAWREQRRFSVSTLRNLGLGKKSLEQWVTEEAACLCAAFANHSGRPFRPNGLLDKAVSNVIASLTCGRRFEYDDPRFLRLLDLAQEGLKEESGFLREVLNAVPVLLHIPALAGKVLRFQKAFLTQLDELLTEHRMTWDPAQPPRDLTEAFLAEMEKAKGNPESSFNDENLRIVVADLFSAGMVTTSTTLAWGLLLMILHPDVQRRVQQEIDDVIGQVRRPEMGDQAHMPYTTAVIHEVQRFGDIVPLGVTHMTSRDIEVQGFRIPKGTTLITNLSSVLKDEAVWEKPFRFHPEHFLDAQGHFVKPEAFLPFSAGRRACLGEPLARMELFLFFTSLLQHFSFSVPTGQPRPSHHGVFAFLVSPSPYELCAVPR
Method: as §2

[9] = Intravenous/oral pharmacokinetics and tissue distribution in mice; type: in vivo; conditions: for Vd: 10 mg/kg
Method: Female ICR mice (aged ∼6 to ∼8 weeks; 3 animals per time point) were used for all studies. Studies were performed as per approved internal protocols for animal care and use. Doses were administered as clear solutions in 50% polyethylene glycol 400 (PEG400) plus […] (D5W). Animals were sacrificed by overdose of CO2, and blood was collected through cardiac puncture at 5 min (10 min per os [p.o.]), 30 min, and 1, 2, 4, 8, 16, and 24 h after administration in tubes containing K3 EDTA as an anticoagulant. The samples were centrifuged, and the plasma was separated and stored at −70°C until analysis. Plasma samples were processed and analyzed by LC-tandem MS. Pharmacokinetic parameters were estimated by noncompartmental methods using WinNonlin (version 5.2; Pharsight, CA).

panel of 62 proteases = test: Protease selectivity panel, overall; type: biochemical
Method: (§3) Protease panel testing was carried out by Reaction Biology Corporation.

Kallikrein 1 = Kallikrein 1 (Homo sapiens, UniProt P06870); test: Protease panel: Kallikrein 1; type: biochemical; conditions: Table 6; 10-dose response, top 10 μM
Sequence of Kallikrein 1 (P06870 25-262, species assumed): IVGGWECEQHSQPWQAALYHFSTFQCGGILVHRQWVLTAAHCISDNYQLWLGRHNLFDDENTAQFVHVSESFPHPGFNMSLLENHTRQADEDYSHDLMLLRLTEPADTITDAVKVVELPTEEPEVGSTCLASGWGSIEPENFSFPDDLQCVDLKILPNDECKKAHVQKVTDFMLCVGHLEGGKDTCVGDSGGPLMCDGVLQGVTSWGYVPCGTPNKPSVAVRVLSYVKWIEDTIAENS
Method: as §3

Kallikrein 7 = Kallikrein 7 (Homo sapiens, UniProt P49862); test: Protease panel: Kallikrein 7; type: biochemical; conditions: Table 6; 10-dose response, top 10 μM
Sequence of Kallikrein 7 (P49862 30-253, species assumed): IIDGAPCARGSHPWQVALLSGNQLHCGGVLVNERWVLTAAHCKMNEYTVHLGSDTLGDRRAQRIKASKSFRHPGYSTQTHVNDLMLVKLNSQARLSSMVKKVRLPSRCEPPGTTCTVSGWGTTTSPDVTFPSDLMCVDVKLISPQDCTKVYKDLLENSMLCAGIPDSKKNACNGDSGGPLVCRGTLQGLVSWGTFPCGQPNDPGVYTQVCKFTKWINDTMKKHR
Method: as §3

Plasma kallikrein = target: T3, Plasma kallikrein (Homo sapiens, UniProt P03952); test: Protease panel: Plasma kallikrein; type: biochemical; conditions: Table 6; 10-dose response, top 10 μM
T3 construct: Reaction Biology Corporation (contract testing)
T3 sequence (P03952 20-638, species assumed): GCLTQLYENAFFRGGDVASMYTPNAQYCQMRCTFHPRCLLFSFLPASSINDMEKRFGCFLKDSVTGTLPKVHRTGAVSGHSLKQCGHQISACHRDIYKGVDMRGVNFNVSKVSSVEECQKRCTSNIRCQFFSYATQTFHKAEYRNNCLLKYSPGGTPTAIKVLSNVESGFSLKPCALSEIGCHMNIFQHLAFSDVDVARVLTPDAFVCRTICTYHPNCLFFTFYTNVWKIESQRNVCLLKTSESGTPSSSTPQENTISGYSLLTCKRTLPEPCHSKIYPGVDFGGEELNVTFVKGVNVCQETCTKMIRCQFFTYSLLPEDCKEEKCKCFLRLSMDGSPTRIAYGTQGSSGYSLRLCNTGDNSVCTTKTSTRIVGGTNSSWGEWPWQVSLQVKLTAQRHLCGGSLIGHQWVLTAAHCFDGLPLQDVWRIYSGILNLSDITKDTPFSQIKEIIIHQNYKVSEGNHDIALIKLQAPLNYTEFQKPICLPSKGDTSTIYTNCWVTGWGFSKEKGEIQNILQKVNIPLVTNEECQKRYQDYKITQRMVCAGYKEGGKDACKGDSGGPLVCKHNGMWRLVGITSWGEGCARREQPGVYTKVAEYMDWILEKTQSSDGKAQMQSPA
Method: as §3

Proteinase K = target: T4, Proteinase K (Parengyodontium album, UniProt P06873); test: Protease panel: Proteinase K; type: biochemical
T4 construct: Reaction Biology Corporation (contract testing)
T4 sequence (P06873 106-384): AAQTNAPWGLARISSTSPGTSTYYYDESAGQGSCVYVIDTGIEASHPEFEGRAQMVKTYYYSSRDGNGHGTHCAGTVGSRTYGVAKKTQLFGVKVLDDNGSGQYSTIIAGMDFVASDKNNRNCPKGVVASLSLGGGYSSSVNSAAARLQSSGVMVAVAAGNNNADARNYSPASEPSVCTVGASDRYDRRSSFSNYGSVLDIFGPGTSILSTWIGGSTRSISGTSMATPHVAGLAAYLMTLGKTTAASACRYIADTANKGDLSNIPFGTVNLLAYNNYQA
Method: as §3

ClpP1P2 = ClpP1P2 (Mycolicibacterium smegmatis, UniProt A0R197+A0R198); test: ClpP1P2 inhibition whole-cell RFP-SsrA reporter assay
Sequence of ClpP1P2 (A0R198 4-203): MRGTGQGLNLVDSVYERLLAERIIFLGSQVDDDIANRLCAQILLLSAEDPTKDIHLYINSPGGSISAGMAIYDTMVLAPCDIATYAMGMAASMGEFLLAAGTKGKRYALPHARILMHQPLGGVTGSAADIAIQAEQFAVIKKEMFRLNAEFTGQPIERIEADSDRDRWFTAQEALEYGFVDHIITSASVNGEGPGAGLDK
Sequence of ClpP1P2 (A0R197 17-218): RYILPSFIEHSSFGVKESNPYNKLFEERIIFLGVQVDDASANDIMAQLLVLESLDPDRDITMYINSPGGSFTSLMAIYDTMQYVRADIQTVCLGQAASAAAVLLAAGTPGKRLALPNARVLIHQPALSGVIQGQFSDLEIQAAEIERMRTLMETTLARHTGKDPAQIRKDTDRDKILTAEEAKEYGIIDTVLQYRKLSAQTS

HepG2 proteasome = HepG2 proteasome (Homo sapiens, UniProt P20618+P28074); test: Cell-based proteasome CT-like peptidase inhibition assay (Proteasome-Glo)
Method: A cell-based CT-like peptidase assay was performed using the Proteasome-Glo cell-based assay reagent (Promega) according to the manufacturer's guidelines. Briefly, HepG2 cells (10^4 cells/well) were treated with the compounds indicated in the figures for 2 h, followed by incubation with the luminescent substrate for 10 min. Luminescence was detected with a Tecan M200 Pro plate reader.

O=C(N[C@@H](Cc1ccccn1)C(=O)N[C@@H](CCc1ccccc1)B(O)O)c1cnccn1 [Compound 58, ((R)-3-phenyl-1-((S)-2-(pyrazine-2-carboxamido)-3-(pyridin-2-yl)propanamido)propyl)boronic acid]
MIC50 (μM) against M. tuberculosis H37Rv (M. tuberculosis H37Rv; 5 days): 2.5 ± 1.3^b μM | MIC90 (μM) against M. tuberculosis H37Rv (M. tuberculosis H37Rv; 5 days): 6 ± 2.8 µM (≈ 2.6 µg/mL) | MIC90 concentration relative to MIC50 (fold higher) (M. tuberculosis H37Rv; H37Rv): < 3 fold | MIC50 (M. tuberculosis H37Rv; Mycobacterium tuberculosis, H37RV, 120 h, 5 days, read-out: MIC50 (μM) against M. tuberculosis H37Rv): 2.5 µM | MIC90 (M. tuberculosis H37Rv; Mycobacterium tuberculosis, H37RV, 120 h, 5 days, read-out: MIC90 (μM) against M. tuberculosis H37Rv): 6 µM (≈ 2.6 µg/mL) | MIC50 (M. tuberculosis H37Rv; Mycobacterium tuberculosis, H37RV, read-out: MIC50-TB): 1.08 µg/mL | MBC (M. tuberculosis): 50 µM (≈ 21.7 µg/mL) | MIC50 (Mycobacterium bovis BCG): 1.5 µM (≈ 0.65 µg/mL) | GI50 [1]: 500 µM | GI50 relative to M. tuberculosis growth-inhibitory potency, Vero (Vero cells): 200 fold | GI50 [2]: 500 µM | GI50 relative to M. tuberculosis growth-inhibitory potency, HepG2 (HepG2 cells): 200 fold | logD (Log D (octanol/PBS)): 2.96 | solubility ([3]; aqueous medium at pH 7.4, aqueous buffer, pH 7.4, text, read-out: aqueous solubility): > 400 µg/mL | solubility ([3]; aqueous solution at pH 4, aqueous buffer, thermodynamic, pH 4, read-out: Aq solubility (μg/ml) at pH 4): 422 µg/mL (≈ 973 µM) | solubility ([3]; aqueous solution at pH 7.4, aqueous buffer, thermodynamic, pH 7.4, read-out: Aq solubility (μg/ml) at pH 7.4): 450 µg/mL (≈ 1040 µM) | Papp [4]: 3.5 ×10⁻⁶ cm/s | fraction unbound [5]: 0.0954 | fraction unbound [6]: 0.109 | half-life [7]: > 24 min | half-life [8]: ~8 min | IC50 (CYP450 3A4): > 10 µM | IC50 (CYP450 2D6): > 10 µM | abnormal clinical signs for up to 24 h after injection ([9]; 10 mg/kg i.v.): No abnormal clinical signs were observed | acute side effects during tail vein injection ([9]; 10 mg/kg i.v.): No acute side effects were observed | time concentrations remained above anti-M. tuberculosis MIC50 ([9]; 10 mg/kg i.v.): approximately 4 h | maximum concentration ([9]; 10 mg/kg i.v., plasma): 32.7 µM | AUC0–t(last) in brain ([9]; 100 mg/kg p.o., brain): 286 ng·h/g | AUC0–t(last) in lung ([9]; 100 mg/kg p.o., lung): 16,253 ng · h/g | C0 ([9]; female, ICR, mouse, iv, 10 mg/kg i.v., plasma, read-out: C0 (maximum concentration)): 14200 ng/mL | AUC(0-inf) ([9]; female, ICR, mouse, plasma, iv, 10 mg/kg i.v., read-out: AUC0-inf): 21100 ng·h/mL | AUC(0-t) ([9]; female, ICR, mouse, plasma, iv, 10 mg/kg i.v., read-out: AUC0-t(last)): 20800 ng·h/mL | clearance ([9]; female, ICR, mouse, plasma, iv, 10 mg/kg i.v., read-out: CL (systemic plasma clearance) (converted)): 8.33 mL/min/kg | half-life ([9]; female, ICR, mouse, plasma, iv, 10 mg/kg i.v., read-out: T½ (elimination half-life) (converted)): 222 min | Vd ([9]; female, ICR, mouse, plasma, iv, 10 mg/kg i.v., read-out: Vss): 2.1 L/kg | Vd ([9]; female, ICR, mouse, plasma, iv, 10 mg/kg i.v., read-out: Vz): 2.5 L/kg | Tmax ([9]; female, ICR, mouse, plasma, lung, brain, po, 100 mg/kg p.o., read-out: Tmax (converted)): 10 min | bioavailability ([9]; female, ICR, mouse, plasma, oral, 10 mg/kg p.o. vs 10 mg/kg i.v., read-out: F (absolute oral bioavailability)): 14% | AUC(0-inf) ([9]; female, ICR, mouse, plasma, po, 10 mg/kg p.o., read-out: AUC0-inf): 2870 ng·h/mL | AUC(0-t) ([9]; female, ICR, mouse, plasma, po, 10 mg/kg p.o., read-out: AUC0-t(last)): 2840 ng·h/mL | Tmax ([9]; female, ICR, mouse, plasma, po, 10 mg/kg p.o., read-out: Tmax (converted)): 30 min | half-life ([9]; female, ICR, mouse, plasma, po, 10 mg/kg p.o., read-out: T½ (converted)): 234 min | Cmax ([9]; female, ICR, mouse, po, 10 mg/kg p.o., plasma, read-out: Cmax): 798 ng/mL | AUC(0-inf) ([9]; female, ICR, mouse, po, 100 mg/kg p.o., brain, Fig. 10B, read-out: AUC0-inf, Brain): 378 ng·h/mL | AUC(0-t) ([9]; female, ICR, mouse, po, 100 mg/kg p.o., brain, Fig. 10B, read-out: AUC0-t(last), Brain): 286 ng·h/mL | Cmax ([9]; female, ICR, mouse, po, 100 mg/kg p.o., brain, read-out: Cmax in brain): 93 ng/g | Tmax ([9]; female, ICR, mouse, po, 100 mg/kg p.o., brain, read-out: Tmax, Brain): 12 min | half-life ([9]; female, ICR, mouse, po, 100 mg/kg p.o., brain, read-out: T½, Brain (converted)): 12 min | AUC(0-inf) ([9]; female, ICR, mouse, po, 100 mg/kg p.o., lung, Fig. 10B, read-out: AUC0-inf, Lung): 17000 ng·h/mL | AUC(0-t) ([9]; female, ICR, mouse, po, 100 mg/kg p.o., lung, Fig. 10B, read-out: AUC0-t(last), Lung): 16300 ng·h/mL | Cmax ([9]; female, ICR, mouse, po, 100 mg/kg p.o., lung, read-out: Cmax in lung): 3370 ng/g | Tmax ([9]; female, ICR, mouse, po, 100 mg/kg p.o., lung, read-out: Tmax, Lung): 12 min | half-life ([9]; female, ICR, mouse, po, 100 mg/kg p.o., lung, read-out: T½, Lung (converted)): 18 min | AUC(0-inf) ([9]; female, ICR, mouse, po, 100 mg/kg p.o., plasma, read-out: AUC0-inf, Plasma): 23600 ng·h/mL | AUC(0-t) ([9]; female, ICR, mouse, po, 100 mg/kg p.o., plasma, read-out: AUC0-t(last), Plasma): 22800 ng·h/mL | Cmax ([9]; female, ICR, mouse, po, 100 mg/kg p.o., plasma, read-out: Cmax, Plasma): 6910 ng/mL | Tmax ([9]; female, ICR, mouse, po, 100 mg/kg p.o., plasma, read-out: Tmax, Plasma): 12 min | half-life ([9]; female, ICR, mouse, po, 100 mg/kg p.o., plasma, read-out: T½, Plasma (converted)): 12 min | Dose linearity ([9]; p.o., plasma Cmax and AUC0–inf at 10 and 100 mg/kg): very good | share of panel of 62 proteases inhibited with a submicromolar IC50 (panel of 62 proteases; 2/62): 3% | share of panel of 62 proteases inhibited with an IC50 between 1 to 10 μM (panel of 62 proteases; 5/62): 8% | share of panel of 62 proteases against which active (<10 μM) (panel of 62 proteases; top concentration tested 10 μM): 11% | IC50 (Kallikrein 1): 6.03 µM | IC50 (Kallikrein 7): 9.31 µM | IC50 (Plasma kallikrein): 4.4 µM | IC50 (Proteinase K; Table 6, 10-dose response, top 10 μM): 0.35 µM | IC50 (Proteinase K; supplement panel table, test and control compound): 0.352 µM | IC50 (ClpP1P2; M. smegmatis ΔprcAB IC50 (μM) for ClpP1P2, whole-cell RFP-SsrA reporter, 3 h incubation): 1.5 ± 0.5 µM | improvement of ClpP1P2 potency compared to compound 1 (ClpP1P2; M. smegmatis ΔprcAB reporter): 4 fold | IC50 (HepG2 proteasome): 0.367 ± 0.103 µM
